Measured values reported in US20040251215A1, “Method for killing organicsms in the course of conveying ballast water in ships and apparatus thereof” (priority 2003, published 2004).

Columns and labels:
[1] = test system: Bacteria; assay: Test of elimination of bacteria in seawater (ballast water) by hydroxyl radical solution; format: cell-based; settings: OH concentration 0.63 mg/L
Description: (§1) Free radical generator of the present invention was made of anode electrode 22, cathode electrode 21, dielectric substance layer 24 and septum 23. Strong electric field of 250-600 Td was formed between the anode electrode and cathode electrode. […] The undissolved free radicals were removed by residual free radical treater 13. High frequency electric source made from transformer 5, invertor 6 and controller 7 was used to supply electric source to free radical generator 3. Free radical concentration measuring apparatus 4 was used to measure the concentration of free radical produced while the hydroxyl radical solution concentration analyzer 14 was used to measure the concentration of hydroxyl radical solution. Untreated ballast water was suctioned by pump 19 into conveying pipe and filtered by filter 16 (FIG. 2). A part of them was taken out and was processed by free radical generating unit 15 into hydroxyl radical solution which was then mixed in liquid-liquid mixer 20 with ballast water conveyed in pipe and flowed through flow meter 17 and valve 18. The effectiveness of the elimination of single cell alga, protozoans and bacteria was illustrated in Table 1.

[2] = test system: single cell alga; assay: Test of elimination of single cell alga in seawater (ballast water) by hydroxyl radical solution; format: cell-based; settings: OH concentration 0.63 mg/L
Description: as §1

[3] = test system: Protozoan; assay: Test of elimination of protozoan in seawater (ballast water) by hydroxyl radical solution; format: cell-based; settings: OH concentration 0.63 mg/L
Description: as §1

[4] = test system: bacteria, single cell alga, protozoan, spore and vibrio; assay: Time and concentration needed to kill microorganisms in ballast water by hydroxyl radical; format: cell-based
Description: as §1
The time necessary for elimination of single cell alga, protozoan, bacteria and the like was extremely short. […]

[5] = Decomposition of residual hydroxyl radicals; format: physicochemical; settings: treated ballast water
Protocol: The residual hydroxyl radicals were decomposed after 20 min into H2O, O2 and the like and there was no any residual chemical reagent left. Therefore the method for treating ballast water by using hydroxyl radicals solution is a green effective method.

For hydroxyl radical [OH], the Lethality [1] was 100%, the Microorganism concentration ([1]; untreated 1.9 × 10^5) was “not detectable” and the Lethality [2] was 100%. The Microorganism concentration ([2]; untreated 6.0 × 10^4) was “not detectable”, the Lethality [3] was 100% and the Microorganism concentration ([3]; untreated 4.4 × 10^4) was “not detectable”. For the same substance, the “time needed for elimination of microorganism” value ([4]; from curve of time against lethality, FIG. 4) was “about 4 s”, the “concentration at which killing is feasible” value ([4]; single cell alga, protozoan, spore, bacteria, vibrio in ballast water) was 0.6 to 0.7 mg/L and the “time after which residual hydroxyl radicals were decomposed into H2O, O2” value [5] was 20 min.
